Measured values as given in patent US5070210A, “Novel ketenimines as intermediates for insecticides” (ICI Americas Inc., priority 1990, dated 1991).

Assays:
Format in all cases: in vivo
[1] = tested on: Housefly [Musca domestica]; test: Housefly insecticidal test; settings: μg per 25 female flies; mortality after 48 hours
Outline: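 LC50, as μg compound per 25 female flies, comes from dosage-mortality curves with doses from 100 μg downward. Residues were made by evaporating acetone plus 0.01% peanut oil in dishes, onto which 1-2-day-old females were caged; deaths were counted after 48 hours.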

[2] = tested on: Tobacco Budworm [Heliothis virescens (Fabricius)] eggs; test: Tobacco budworm egg test; settings: 2-day old eggs, percent in solution
Outline: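 Paper towel patches bearing 2-day old eggs were dipped in acetone solutions of compound, then set in petri dishes over larval rearing medium at 78° F. Mortality was scored once all control eggs had hatched and larvae were feeding. LC50, from dosage-mortality curves, is given as percent compound in solution.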

[3] = tested on: Cabbage Looper [Trichoplusia ni (Hubner)]; test: Cabbage looper insecticidal test; settings: second-instar larvae, percent in solution; 3-5 days
Outline: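 Compounds in 50-50 acetone-water were applied by dipping squash cotyledons (about 1×1.5 in) for 2-3 s; dried leaves went into petri dishes on moist filter paper with 5 second-instar larvae under high humidity. Mortality was scored after 3-5 days; LC50 from dosage-mortality curves, as percent compound in solution.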

[4] = tested on: Maize weevil [Sitophilus Zeamais (Motschulsky)]; test: Maize weevil insecticidal test; settings: adult weevils, percent in solution; 48 hours
Protocol: The compounds in Tables 1 and 2 above were tested for insecticidal activity using the following testing procedures. LC50 values, based on the results of these tests and calculated according to dosage-mortality curves, are expressed in Table 3.
Maize weevil [Sitophilus Zeamais (Motschulsky)]:
Test compounds were diluted in a 50:50 acetone:water solution. Four corn seeds [Zea mays (L.)] which had been immersed in test solutions for 2-3 seconds and allowed to dry were placed in containers together with 10 adult weevils. The containers were covered and kept at a temperature of about 25° C. Mortality was recorded after 48 hours. Test concentrations ranged from 0.01% down to that at which 50% mortalilty occurred. The LC50 values are expressed below in Table 3 under the heading "MW" in terms of percent of the test compound in solution.

## CC(C)C(=Nc1ccc(OC(F)(F)F)cc1)OCc1cccc(Oc2ccccc2)n1 [Compound 550]
[1]
  LC50, HF: < 100 µg
[2]
  LC50, TBW, E (TBW-E): > 0.1%
[3]
  LC50, CL: 0.00034%
[4]
  LC50, MW: > 0.01%

## CC(C)C(=Nc1ccc(Cl)cc1)OCc1cccc(Oc2ccccc2)n1 [Compound 553]
[1]
  LC50, HF: < 100 µg
[2]
  LC50, TBW, E (TBW-E): 0.1%
[3]
  LC50, CL: < 0.1%
[4]
  LC50, MW: > 0.01%

## CC(C)C(=Nc1ccc(I)c(Cl)c1)OCc1ccc(F)c(Oc2ccc(F)cc2)c1 [Compound 385]
[1]
  LC50, HF: < 100 µg
[2]
  LC50, TBW, E (TBW-E): > 0.1%
[3]
  LC50, CL: > 0.1%
[4]
  LC50, MW: > 0.01%

## CC(C)C(=Nc1cccc(Cl)c1)OCc1ccc(F)c(Oc2ccc(Cl)cc2)c1 [Compound 390]
[1]
  LC50, HF: < 100 µg
[2]
  LC50, TBW, E (TBW-E): 0.045%
[3]
  LC50, CL: 0.0021%
[4]
  LC50, MW: > 0.01%

## CC(C)C(=Nc1ccc(F)c(F)c1)OCc1cccc(Oc2ccc(Cl)cc2)n1 [Compound 559]
[1]
  LC50, HF: < 100 µg
[2]
  LC50, TBW, E (TBW-E): 0.017%
[3]
  LC50, CL: 0.00027%
[4]
  LC50, MW: > 0.01%

## CC(C)C(=Nc1ccc(C(F)(F)F)c(Br)c1)OCc1ccc(F)c(Oc2ccccc2)c1 [Compound 434]
[1]
  LC50, HF: < 100 µg
[2]
  LC50, TBW, E (TBW-E): > 0.1%
[3]
  LC50, CL: 0.0017%
[4]
  LC50, MW: 0.009%

## CC(C)C(=Nc1ccc(Br)c(F)c1)OCc1cccc(Oc2ccc(Cl)cc2)n1 [Compound 551]
[1]
  LC50, HF: < 100 µg
[2]
  LC50, TBW, E (TBW-E): 0.035%
[3]
  LC50, CL: 0.00075%
[4]
  LC50, MW: > 0.01%

## CC(C)C(=Nc1cccc(C(F)(F)F)c1)OCc1coc(Cc2ccccc2)c1 [Compound 482]
[1]
  LC50, HF: 36 µg
[2]
  LC50, TBW, E (TBW-E): > 0.1%
[3]
  LC50, CL: 0.01%
[4]
  LC50, MW: > 0.01%

## CC(C)C(=Nc1cccc(C(F)(F)F)c1)OCc1ccnc(Oc2ccccc2)c1 [Compound 507]
[1]
  LC50, HF: 93 µg
[2]
  LC50, TBW, E (TBW-E): > 0.1%
[3]
  LC50, CL: 0.002%
[4]
  LC50, MW: > 0.01%

## CCOc1ccc(N=C(OCc2cccc(Oc3ccccc3)c2)C(C)C)cc1 [Compound 371]
[1]
  LC50, HF: < 100 µg
[2]
  LC50, TBW, E (TBW-E): > 0.1%
[3]
  LC50, CL: 0.0022%
[4]
  LC50, MW: > 0.01%

## CCOc1ccc(N=C(OCc2ccc(F)c(Oc3ccccc3)c2)C(C)C)cc1F [Compound 439]
[1]
  LC50, HF: > 100 µg
[2]
  LC50, TBW, E (TBW-E): > 0.1%
[3]
  LC50, CL: 0.00045%
[4]
  LC50, MW: > 0.01%

## CC(C)C(=Nc1ccc(Cl)c(C(F)(F)F)c1)OCc1ccc(F)c(Oc2ccccc2)c1 [Compound 388]
[1]
  LC50, HF: < 100 µg
[2]
  LC50, TBW, E (TBW-E): > 0.1%
[3]
  LC50, CL: 0.0012%
[4]
  LC50, MW: > 0.01%

## C=C(C)C(=Nc1ccc(C(F)(F)F)cc1)OCc1cccc(Oc2ccc(F)cc2)c1 [Compound 442]
[1]
  LC50, HF: < 100 µg
[2]
  LC50, TBW, E (TBW-E): 0.035%
[3]
  LC50, CL: 0.0007%
[4]
  LC50, MW: > 0.01%

## CC(C)C(=Nc1ccc(F)c(Cl)c1F)OCc1ccc(F)c(Oc2ccc(Cl)cc2)c1 [Compound 395]
[1]
  LC50, HF: 8.6 µg
[2]
  LC50, TBW, E (TBW-E): 0.018%
[3]
  LC50, CL: < 0.1%
[4]
  LC50, MW: 0.004%

## COc1ccc(N=C(OCc2ccc(F)c(Oc3ccccc3)c2)C(C)C)cc1F [Compound 435]
[1]
  LC50, HF: < 100 µg
[2]
  LC50, TBW, E (TBW-E): 0.04%
[3]
  LC50, CL: 0.002%
[4]
  LC50, MW: > 0.01%

## CC(C)C(=Nc1c(F)c(F)cc(F)c1F)OCc1cccc(Oc2ccc(F)cc2)c1 [Compound 304]
[1]
  LC50, HF: > 100 µg
[2]
  LC50, TBW, E (TBW-E): > 0.1%
[3]
  LC50, CL: 0.0024%
[4]
  LC50, MW: > 0.01%

## CCOc1cccc(N=C(OCc2ccc(F)c(Oc3ccc(F)cc3)c2)C(C)C)c1 [Compound 426]
[1]
  LC50, HF: > 100 µg
[2]
  LC50, TBW, E (TBW-E): > 0.1%
[3]
  LC50, CL: 0.002%
[4]
  LC50, MW: > 0.01%

## COCc1c(F)c(F)c(COC(=Nc2cccc(C(F)(F)F)c2)C(C)C)c(F)c1F [Compound 503]
[1]
  LC50, HF: 21 µg
[2]
  LC50, TBW, E (TBW-E): 0.08%
[3]
  LC50, CL: 0.001%
[4]
  LC50, MW: > 0.01%

## CC(C)C(=Nc1ccc(OCC(F)(F)F)c(Cl)c1)OCc1cccc(Oc2ccc(F)cc2)c1 [Compound 420]
[1]
  LC50, HF: > 100 µg
[2]
  LC50, TBW, E (TBW-E): 0.05%
[3]
  LC50, CL: 0.00075%
[4]
  LC50, MW: > 0.01%

## CCOc1ccc(N=C(OCc2cccc(Oc3ccccc3)c2)C(C)C)cc1Cl [Compound 368]
[1]
  LC50, HF: < 100 µg
[2]
  LC50, TBW, E (TBW-E): 0.04%
[3]
  LC50, CL: 0.002%
[4]
  LC50, MW: > 0.01%

## CC(C)C(=Nc1cccc(Cl)c1)OCc1ccc(F)c(Oc2ccc(F)cc2)c1 [Compound 341]
[1]
  LC50, HF: 4 µg
[2]
  LC50, TBW, E (TBW-E): 0.023%
[3]
  LC50, CL: 0.0005%
[4]
  LC50, MW: > 0.01%

## Cc1cc(N=C(OCc2ccc(F)c(Oc3ccc(F)cc3)c2)C(C)C)ccc1F [Compound 396]
[1]
  LC50, HF: < 100 µg
[2]
  LC50, TBW, E (TBW-E): < 0.1%
[3]
  LC50, CL: 0.0017%
[4]
  LC50, MW: > 0.01%

## Cc1ccc(N=C(OCc2ccc(F)c(Oc3ccc(Cl)cc3)c2)C(C)C)cc1C [Compound 406]
[1]
  LC50, HF: < 100 µg
[2]
  LC50, TBW, E (TBW-E): < 0.1%
[3]
  LC50, CL: > 0.1%
[4]
  LC50, MW: > 0.01%

## CC(C)C(=Nc1cccc(C(F)(F)F)c1)OCc1cc(Oc2ccc(Cl)cc2)ccn1 [Compound 509]
[1]
  LC50, HF: 79 µg
[2]
  LC50, TBW, E (TBW-E): > 0.1%
[3]
  LC50, CL: 0.0075%
[4]
  LC50, MW: > 0.01%

## CC(C)C(=Nc1ccc2c(c1)OC(F)(F)O2)OCc1cccc(Oc2ccccc2)n1 [Compound 556]
[1]
  LC50, HF: < 100 µg
[2]
  LC50, TBW, E (TBW-E): 0.04%
[3]
  LC50, CL: 0.0007%
[4]
  LC50, MW: > 0.01%

## CCc1ccc(N=C(OCc2cccc(Oc3ccc(Cl)cc3)n2)C(C)C)cc1 [Compound 552]
[1]
  LC50, HF: > 100 µg
[2]
  LC50, TBW, E (TBW-E): > 0.1%
[3]
  LC50, CL: 0.0016%
[4]
  LC50, MW: > 0.01%

## CCOc1ccc(N=C(OCc2ccc(F)c(Oc3ccc(Cl)cc3)c2)C(C)C)cc1 [Compound 372]
[1]
  LC50, HF: > 100 µg
[2]
  LC50, TBW, E (TBW-E): > 0.1%
[3]
  LC50, CL: > 0.1%
[4]
  LC50, MW: > 0.01%

## Clc1ccc(N=C(OCc2cccc(Oc3ccccc3)c2)C2CCC2)cc1 [Compound 8]
[1]
  LC50, HF: 50 µg
[2]
  LC50, TBW, E (TBW-E): > 0.1%
[3]
  LC50, CL: 0.01%
[4]
  LC50, MW: > 0.01%

## CC(C)C(=Nc1cccc(Br)c1)OCc1ccc(F)c(Oc2ccc(Cl)cc2)c1 [Compound 386]
[1]
  LC50, HF: < 100 µg
[2]
  LC50, TBW, E (TBW-E): > 0.1%
[3]
  LC50, CL: 0.0012%
[4]
  LC50, MW: > 0.01%

## CC(C)C(=Nc1ccc(F)c(Cl)c1)OCc1cccc(Oc2cccc(Cl)c2)c1 [Compound 203]
[1]
  LC50, HF: 43 µg
[2]
  LC50, TBW, E (TBW-E): 0.06%
[3]
  LC50, CL: 0.0025%
[4]
  LC50, MW: > 0.01%

## CC(C)C(=Nc1ccc(Br)c(Br)c1)OCc1ccc(F)c(Oc2ccccc2)c1 [Compound 384]
[1]
  LC50, HF: < 100 µg
[2]
  LC50, TBW, E (TBW-E): 0.025%
[3]
  LC50, CL: > 0.1%
[4]
  LC50, MW: > 0.01%
